Experimental data published in patent US8188102B2, “Amide derivative for inhibiting the growth of cancer cells” (Hanmi Holdings Co., Ltd., priority 2007, dated 2012).

Assays:
[1] = system: A431 skin cancer cell line; assay: Cancer cell growth inhibition, A431 (SRB); settings: Homo sapiens, A-431, 72 h, read-out: ID50 (nM) A431
[2] = system: H1975 lung cancer cell line; assay: Cancer cell growth inhibition, H1975 (celltiter); settings: Homo sapiens, NCI-H1975, 48 h, read-out: IC50 (nM) H1975
Experimental: The medium was removed from each well of the 96-well plate.
In case of H1975, the cells were diluted with a culture medium to a concentration of 50,000 cells/ml. 100 μl of the diluted cell solution was added to each well of a 96-well plate, and, after 1 day, was washed with a mixture of RPMI, 0.1% FBS and 1% penicillin-streptomycin (PS), followed by replacement of the medium. The plate was allowed to be kept overnight and be treated to various concentrations under the same medium condition for 48 hrs. Similarly to an MTT assay, 15 μl of a celltiter one shot solution (Promega) was added to each well, which was incubated for 2 to 3 hrs, and, then, the absorbance at 490 nm was determined.

[3] = system: SK-Br3 breast cancer cell line; assay: Cancer cell growth inhibition, SK-Br3 (SRB); settings: Homo sapiens, SK-BR-3, 72 h, read-out: ID50 (nM) SK-Br3
[4] = system: SW-620 colon/rectal cancer cell line; assay: Cancer cell growth inhibition, SW-620 (SRB); settings: Homo sapiens, SW-620, 72 h, read-out: IC50 (nM) SW-620
[5] = target: EGFR T790M kinase (Homo sapiens, UniProt P00533, T790M); assay: Inhibition of EGFR mutant enzyme (T790M); settings: read-out: IC50 (nM) T790M; EGFR T790M kinase
Chain of EGFR T790M kinase (P00533 25-1210 T790M): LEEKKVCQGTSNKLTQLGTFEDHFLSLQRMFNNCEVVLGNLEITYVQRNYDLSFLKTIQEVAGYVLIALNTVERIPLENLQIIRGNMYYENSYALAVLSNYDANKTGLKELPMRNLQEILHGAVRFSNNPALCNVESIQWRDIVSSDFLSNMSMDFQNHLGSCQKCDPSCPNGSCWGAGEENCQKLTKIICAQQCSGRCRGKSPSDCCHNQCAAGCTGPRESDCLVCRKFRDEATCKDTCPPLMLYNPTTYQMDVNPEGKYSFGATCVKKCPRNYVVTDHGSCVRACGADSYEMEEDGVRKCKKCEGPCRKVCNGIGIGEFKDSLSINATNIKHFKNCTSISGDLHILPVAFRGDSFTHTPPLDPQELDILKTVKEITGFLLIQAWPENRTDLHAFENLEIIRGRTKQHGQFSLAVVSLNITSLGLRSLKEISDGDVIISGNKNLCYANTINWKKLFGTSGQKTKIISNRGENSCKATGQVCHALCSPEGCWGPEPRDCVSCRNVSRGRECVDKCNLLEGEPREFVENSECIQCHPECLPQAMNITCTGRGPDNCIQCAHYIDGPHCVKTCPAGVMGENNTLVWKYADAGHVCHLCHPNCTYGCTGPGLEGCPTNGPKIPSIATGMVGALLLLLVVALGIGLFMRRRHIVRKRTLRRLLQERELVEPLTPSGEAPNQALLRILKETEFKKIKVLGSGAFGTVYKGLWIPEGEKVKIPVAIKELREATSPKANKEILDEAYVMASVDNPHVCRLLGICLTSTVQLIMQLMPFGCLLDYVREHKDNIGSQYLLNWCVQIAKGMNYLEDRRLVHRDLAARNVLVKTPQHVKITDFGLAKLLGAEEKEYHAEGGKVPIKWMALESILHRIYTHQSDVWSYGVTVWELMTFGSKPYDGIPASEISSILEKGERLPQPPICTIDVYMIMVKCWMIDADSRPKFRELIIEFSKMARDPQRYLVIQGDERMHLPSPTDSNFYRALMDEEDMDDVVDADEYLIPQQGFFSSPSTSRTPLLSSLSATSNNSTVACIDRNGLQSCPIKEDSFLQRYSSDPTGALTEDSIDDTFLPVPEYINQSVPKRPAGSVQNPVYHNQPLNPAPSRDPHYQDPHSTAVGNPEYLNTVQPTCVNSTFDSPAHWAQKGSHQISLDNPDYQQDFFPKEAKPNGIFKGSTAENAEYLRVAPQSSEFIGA

SMILES | IC50 [1] | IC50 [2] | IC50 [3] | IC50 [4] | IC50 [5]
COc1cc2ncnc(Nc3cccc(Cl)c3F)c2cc1OC1CCN(C(=O)CO)CC1 [Ex 1*] | 39 nM | > 1000 nM | 293 nM |  | 
C=CC(=O)N1CC[C@H](Oc2cc3c(Nc4ccc(F)c(Cl)c4F)ncnc3cc2OC)C[C@H]1C(=O)NCCO [Example 126, (2S,4S)-1-acryloyl-4-(4-(3-chloro-2,4-difluorophenylamino)-7-methoxyquinazolin-6-yloxy)-N-(2-hydroxyethyl)piperidin-2-carboxamide] | 5.4 nM | 39 nM | 0.9 nM | > 5000 nM | 1.8 nM
C=CC(=O)N1CC[C@H](Oc2cc3c(Nc4ccc(F)c(Cl)c4F)ncnc3cc2OC)C[C@H]1C(=O)NCCN(C)C [Example 130, (2S,4S)-1-acryloyl-4-(4-(3-chloro-2,4-difluorophenylamino)-7-methoxyquinazolin-6-yloxy)-N-(2-(dimethylamino)ethyl)piperidin-2-carboxamide] | 5.7 nM | 30 nM | 0.9 nM | > 5000 nM | 6.6 nM
COc1cc2ncnc(Nc3ccc(F)c(Cl)c3F)c2cc1OC1CN(C(=O)/C=C\Cl)C1 [Example 32, (Z)-3-chloro-1-(3-(4-(3-chloro-2,4-difluorophenylamino)-7-methoxyquinazolin-6-yloxy)azetidin-1-yl)pro-2-pen-1-one] | 2.4 nM | 19 nM | 2.2 nM |  | 
C=CC(=O)N1CCC(Oc2cc3c(Nc4ccc(Br)c(C)c4)ncnc3cc2OC)CC1 [Example 39, 1-(4-(4-(4-bromo-3-methylphenylamino)-7-methoxyquinazolin-6-yloxy)piperidin-1-yl)pro-2-pen-1-one] | 6 nM | 48 nM | 9 nM |  | 7.6 nM
C=CC(=O)N1CC[C@H](Oc2cc3c(Nc4ccc(Cl)c(Cl)c4F)ncnc3cc2OC)C1 [Example 8, 1-((3S)-3-(4-(3,4-dichloro-2-fluorophenylamino)-7-methoxyquinazolin-6-yloxy)pyrrolidin-1-yl)pro-2-pen-1-one] |  |  |  | > 5000 nM | 
C=CC(=O)N1CCC(Oc2cc3c(Nc4cccc(C=C)c4)ncnc3cc2OC)CC1 [Example 73, 1-(4-(7-methoxy-4-(3-vinylphenylamino)quinazolin-6-yloxy)piperidin-1-yl)pro-2-pen-1-one] | 1.9 nM | 27 nM | 1.2 nM | > 5000 nM | 3 nM
C=CC(=O)N1CCC(Oc2cc3c(Nc4cccc(C(F)(F)F)c4)ncnc3cc2OC)CC1 [Example 58, 1-(4-(7-methoxy-4-(3-(trifluoromethyl)phenylamino)quinazolin-6-yloxy)piperidin-1-yl)pro-2-pen-1-one] | 58 nM |  | 20 nM | > 5000 nM | 16.2 nM
C=CC(=O)N1CCC(Oc2cc3c(Nc4cccc(Cl)c4)ncnc3cc2OC)CC1 [Example 43, 1-(4-(4-(3-chlorophenylamino)-7-methoxyquinazolin-6-yloxy)piperidin-1-yl)pro-2-pen-1-one] |  |  | 0.7 nM | > 5000 nM | 
C=CC(=O)N1CC(Oc2cc3c(Nc4ccc(F)c(Cl)c4)ncnc3cc2OC)C1 [Example 25, 1-(3-(4-(3-chloro-4-fluorophenylamino)-7-methoxyquinazolin-6-yloxy)azetidin-1-yl)pro-2-pen-1-one] |  |  | 0.4 nM | > 5000 nM | 
C=CC(=O)N1CC[C@@H](Oc2cc3c(Nc4ccc(Cl)c(Cl)c4F)ncnc3cc2OC)C[C@@H]1C(N)=O [Example 139, (2R,4R)-1-acryloyl-4-(4-(3,4-dichloro-2-fluorophenylamino)-7-methoxyquinazolin-6-yloxy)piperidin-2-carboxamide] | 0.8 nM | 1.1 nM | 1.1 nM | > 5000 nM | 
C=C(NC(C)=O)C(=O)N1CC(Oc2cc3c(Nc4ccc(F)c(Cl)c4F)ncnc3cc2OC)C1 [Example 31, N-(3-(3-(4-(3-chloro-2,4-difluorophenylamino)-7-methoxyquinazolin-6-yloxy)azetidin-1-yl)-3-oxopro-1-en-2-yl)acetamide] | 3.1 nM | 50 nM | 2.5 nM |  | 
C=CC(=O)N1CCC(Oc2cc3c(Nc4cccc(C)c4)ncnc3cc2OC)CC1 [Example 41, 1-(4-(4-(m-toluidino)-7-methoxyquinazolin-6-yloxy)piperidin-1-yl)pro-2-pen-1-one] | 1 nM | 236 nM | 2 nM |  | 9.3 nM
C=CC(=O)N1CC[C@H](Oc2cc3c(Nc4ccc(F)c(Cl)c4F)ncnc3cc2OC)C[C@H]1C(=O)NCCOC [Example 127, (2S,4S)-1-acryloyl-4-(4-(3-chloro-2,4-difluorophenylamino)-7-methoxyquinazolin-6-yloxy)-N-(2-methoxyethyl)piperidin-2-carboxamide] | 3.4 nM | 11 nM | 2.3 nM | > 5000 nM | 3.8 nM
C=CC(=O)N1CC[C@@H](Oc2cc3c(Nc4ccc(F)c(Cl)c4F)ncnc3cc2OC)C[C@@H]1C(=O)NC [Example 136, (2R,4R)-1-acryloyl-4-(4-(3-chloro-2,4-difluorophenylamino)-7-methoxyquinazolin-6-yloxy)-N-methylpiperidin-2-carboxamide] | 2.9 nM | 2.6 nM | 0.2 nM | > 5000 nM | 0.9 nM
C=CC(=O)N1CC(Oc2cc3c(Nc4ccc(Cl)c(Cl)c4F)ncnc3cc2OC)C1 [Example 24, 1-(3-(4-(3,4-dichloro-2-fluorophenylamino)-7-methoxyquinazolin-6-yloxy)azetidin-1-yl)pro-2-pen-1-one] |  |  | 0.6 nM | > 5000 nM | 
C=CC(=O)N1CCC(Oc2cc3c(Nc4ccc(F)c(Cl)c4)ncnc3cc2OC)CC1 [Example 57, 1-(4-(4-(3-chloro-4-fluorophenylamino)-7-methoxyquinazolin-6-yloxy)piperidin-1-yl)pro-2-pen-1-one] | 17 nM | 16 nM | 2 nM | > 5000 nM | 
C=CC(=O)N1CC[C@H](Oc2cc3c(Nc4ccc(F)c(Cl)c4F)ncnc3cc2OC)C[C@H]1C(=O)NCCS(C)(=O)=O [Example 129, (2S,4S)-1-acryloyl-4-(4-(3-chloro-2,4-difluorophenylamino)-7-methoxyquinazolin-6-yloxy)-N-(2-(methylsulfonyl)ethyl)piperidin-2-carboxamide] | 2.2 nM | 50.4 nM | 0.6 nM |  | 3 nM
C=CC(=O)N1CCC(Oc2cc3c(Nc4ccc(F)c(C)c4)ncnc3cc2OC)CC1 [Example 46, 1-(4-(4-(4-fluoro-3-methylphenylamino)-7-methoxyquinazolin-6-yloxy)piperidin-1-yl)pro-2-pen-1-one] | 8 nM |  | 2 nM |  | 
CN(C)C/C=C/C(=O)Nc1cc2c(Nc3ccc(F)c(Cl)c3)ncnc2cc1O[C@H]1CCOC1 [BIBW2992, reference compound] |  |  |  | 2640 nM | 
C=CC(=O)N1CCC(Oc2cc3c(NCc4cccc(Cl)c4)ncnc3cc2OC)CC1 [Example 72, 1-(4-(4-(3-chlorobenzylamino)-7-methoxyquinazolin-6-yloxy)piperidin-1-yl)pro-2-pen-1-one] | 61 nM |  | 20 nM |  | 
C=CC(=O)N1CCC(Oc2cc3c(Nc4cccc(Br)c4)ncnc3cc2OC)CC1 [Example 42, 1-(4-(4-(3-bromophenylamino)-7-methoxyquinazolin-6-yloxy)piperidin-1-yl)pro-2-pen-1-one] | 1 nM | 96 nM | 0.7 nM |  | 7.1 nM
C=CC(=O)N1CCC(Oc2cc3c(Nc4cccc(CCl)c4)ncnc3cc2OC)CC1 [Example 77, 1-(4-(4-(3-(chloromethyl)phenylamino)-7-methoxyquinazolin-6-yloxy)piperidin-1-yl)pro-2-pen-1-one] | 26 nM |  | 7 nM |  | 
CS(=O)(=O)CCNCc1ccc(-c2ccc3ncnc(Nc4ccc(OCc5cccc(F)c5)c(Cl)c4)c3c2)o1 [Lapatinib, reference compound] | 80 nM |  | 40 nM | > 5000 nM | 
CN(C)C/C=C/C(=O)N1CC[C@H](Oc2ccc3ncnc(Nc4ccc(F)c(Cl)c4F)c3c2)C1 [Example 97, (E)-1-((3S)-3-(4-(3-chloro-2,4-difluorophenylamino)quinazolin-6-yloxy)pyrrolidin-1-yl)-4-(dimethylamino)but-2-en-1-one] | 25 nM |  | 94 nM |  | 
COC(=O)/C=C\C(=O)N1CC(Oc2cc3c(Nc4cccc(Cl)c4F)ncnc3cc2OC)C1 [Example 30, (Z)-methyl 4-(3-(4-(3-chloro-2-fluorophenylamino)-7-methoxyquinazolin-6-yloxy)azetidin-1-yl)-4-oxobut-2-enoate] | 1 nM |  | 0.6 nM |  | 
C=CC(=O)N1CC[C@H](Oc2cc3c(Nc4ccc(Br)cc4F)ncnc3cc2OC)C1 [Example 9, 1-((3S)-3-(4-(4-bromo-2-fluorophenylamino)-7-methoxyquinazolin-6-yloxy)pyrrolidin-1-yl)pro-2-pen-1-one] | 15 nM |  | 58 nM |  | 
COC(=O)/C=C\C(=O)N1CCC(Oc2cc3c(Nc4ccc(Cl)c(Cl)c4F)ncnc3cc2OC)CC1 [Example 84, (Z)-methyl 4-(4-(4-(3,4-dichloro-2-fluorophenylamino)-7-methoxyquinazolin-6-yloxy)piperidin-1-yl)-4-oxobut-2-enoate] | 8 nM |  | 21 nM |  | 
